Assay results as given in PubChem BioAssay (NCI).
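Following 48 hours of exposure in 96-well plates, responses at five concentrations were used to interpolate endpoints linearly. Here, GI50 denotes the concentration required for 50% inhibition of growth. TGI denotes the concentration required for complete inhibition of growth.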

Key:
Assay in all cases: growth of human tumour cells (NCI), 48 h
KM12 colon = tested on: KM12 colon
SK-MEL-5 melanoma = tested on: SK-MEL-5 melanoma
MDA-MB-435 = tested on: MDA-MB-435
HCT-15 colon = tested on: HCT-15 colon
HCC-2998 colon = tested on: HCC-2998 colon
786-0 renal = tested on: 786-0 renal
HL-60(TB) leukemia = tested on: HL-60(TB) leukemia
A549 NSCLC = tested on: A549 NSCLC
MDA-MB-231 breast = tested on: MDA-MB-231 breast
SF-295 CNS = tested on: SF-295 CNS

Compound	TGI (KM12 colon)	TGI (SK-MEL-5 melanoma)	TGI (MDA-MB-435)	TGI (HCT-15 colon)	TGI (HCC-2998 colon)	TGI (786-0 renal)	TGI (HL-60(TB) leukemia)	TGI (A549 NSCLC)	TGI (MDA-MB-231 breast)	TGI (SF-295 CNS)	GI50 (KM12 colon)	GI50 (MDA-MB-435)	GI50 (HCT-15 colon)	GI50 (A549 NSCLC)	GI50 (SF-295 CNS)	GI50 (MDA-MB-231 breast)	GI50 (HCC-2998 colon)	GI50 (HL-60(TB) leukemia)	GI50 (SK-MEL-5 melanoma)
Nc1nc(Nc2ccc(Cl)cc2)sc1C(=O)c1c[nH]c2ccccc12	51.1 µM	24.3 µM	47.5 µM	15.2 µM	24.1 µM	15.6 µM	82.8 µM	29.5 µM	35 µM										
Oc1cc(O)c2c(c1)O[C@H](c1cc(O)c(O)c(O)c1)[C@@H](O)C2		60.2 µM	38.1 µM	> 100 µM	> 10 µM	32.8 µM	45.4 µM	> 100 µM	34 µM	73.2 µM									
CC(=O)Oc1c2c(c(OC(C)=O)c3c1n(C(C)=O)c1ccccc1n3C(C)=O)n(C(C)=O)c1ccccc1n2C(C)=O	31.5 µM	39 µM		13 µM	18.9 µM		6.1 µM	24.2 µM		28.9 µM									
COc1cc(N)c2[nH]c3c(C)ccc(C)c3c2c1	> 100 µM	> 100 µM		> 100 µM	> 100 µM	> 100 µM	> 100 µM	> 100 µM		> 100 µM									
COC(=O)c1ccccc1NC(=S)NN(C)C	> 100 µM		> 100 µM	> 100 µM	> 100 µM	> 100 µM	> 100 µM	> 100 µM	> 100 µM	> 100 µM									
Cn1cc(-c2nc(-c3c[nH]c4ccncc34)cs2)c2ccccc21	2.35 µM		3.32 µM	2.81 µM				3.46 µM	3.04 µM	3.32 µM	1.11 µM	1.79 µM	1.37 µM	1.83 µM	1.77 µM	1.56 µM			
CCCCOc1c(C(=O)O)cc(Br)cc1C(=O)O	> 100 µM	> 100 µM	> 100 µM	> 100 µM	> 100 µM	> 100 µM		> 100 µM	> 100 µM	> 100 µM									
N=S(=O)(c1ccccc1)c1ccccc1	> 100 µM	> 100 µM			> 100 µM		> 100 µM	> 100 µM		> 100 µM									
CCCCCCCCCCCCCCCCNCC(O)CN (centres undefined)	3.66 µM	27 µM		4.38 µM	5.84 µM		4.93 µM	10.2 µM		6.93 µM									
Nc1ncnc2c1ncn2CCCC(c1ccccc1)P(=O)(O)O (centres undefined)	> 100 µM	> 100 µM		> 100 µM	> 100 µM	> 100 µM	> 100 µM	> 100 µM		> 100 µM									
COC(=O)[C@@H]1[C@H](O)CCC2=C(CC(=O)c3ccoc3)[C@H](C)CC[C@]21C	> 50 µM	> 50 µM		> 50 µM	> 50 µM	> 50 µM		> 50 µM	> 50 µM	> 50 µM									
CSc1c2c(C)n[nH]c2nn1-c1ccccc1	> 100 µM	> 100 µM	> 100 µM	> 100 µM	> 100 µM	> 100 µM	93.6 µM	> 100 µM	> 100 µM										
N=c1n(CC(=O)NC23CC4CC(CC(C4)C2)C3)c2ccccc2n1CC(=O)NC12CC3CC(CC(C3)C1)C2	2.98 µM	3.24 µM		3.31 µM	2.65 µM	3.19 µM	4.82 µM			3.52 µM									
CCCc1n[nH]c(=O)n1N1C(=O)C=CC1=O		> 100 µM	> 100 µM	> 100 µM	> 100 µM	> 100 µM		> 100 µM	> 100 µM	> 100 µM									
Fc1ccc2[nH]cc(-c3nc(-c4c[nH]c5ccncc45)cs3)c2c1					3.49 µM		4.58 µM			3.1 µM					1.68 µM		1.92 µM	2.07 µM	
C=CCNc1nc(O)c(/C=C2\C=Nc3ncccc32)s1	8.23 µM	> 100 µM	4.96 µM	> 100 µM	58.5 µM		5.27 µM	19.4 µM	6.63 µM	> 100 µM	2.51 µM	1.94 µM	2.62 µM	7.08 µM	2.5 µM	2.44 µM	3.4 µM	2.1 µM	2.86 µM
CC(C)(C)c1ccc(O)c(C(c2ccc([N+](=O)[O-])cc2)c2cc(C(C)(C)C)ccc2O)c1				4.27 µM	3.44 µM	3.8 µM	3.95 µM	3.77 µM	3.78 µM	3.64 µM									
C[C@@H](NC(=O)[C@@H]1C[C@]1(C)CO)c1cccc2ccccc12	> 100 µM	> 100 µM	> 100 µM	> 100 µM	> 100 µM	> 100 µM		> 100 µM	> 100 µM	> 100 µM									
Clc1ccc2nc3n[nH]c(Cl)c3nc2c1	> 100 µM	97.8 µM	> 100 µM	> 100 µM	> 100 µM	> 100 µM		> 100 µM	> 100 µM	> 100 µM									
C[N+](C)(C)CCOC(=O)/C=C/c1cnc[nH]1	> 500 µM	> 500 µM		> 500 µM	> 500 µM		> 500 µM	> 500 µM		> 500 µM									
CC(C(=O)NCCNC(=O)CCC(=O)N(C)O)C(=O)NCCNC(=O)CCC(=O)N(C)O	> 100 µM	> 100 µM	> 100 µM	> 100 µM	> 100 µM		> 100 µM	> 100 µM	> 100 µM	> 100 µM									
O=C(NC12CC3CC(CC(C3)C1)C2)C(=O)c1c[nH]c2ccc(Br)cc12	41.7 µM	> 100 µM		> 100 µM	> 100 µM	20.5 µM	> 100 µM	42.4 µM		19.8 µM									
